Assay [1] deals with T1, human adrenergic-α2A receptor (Homo sapiens, UniProt P08913).
T1 construct: expressed in transfected cells; host or cells: CHO cells, stably transfected; membranes
T1 sequence (P08913 1-465): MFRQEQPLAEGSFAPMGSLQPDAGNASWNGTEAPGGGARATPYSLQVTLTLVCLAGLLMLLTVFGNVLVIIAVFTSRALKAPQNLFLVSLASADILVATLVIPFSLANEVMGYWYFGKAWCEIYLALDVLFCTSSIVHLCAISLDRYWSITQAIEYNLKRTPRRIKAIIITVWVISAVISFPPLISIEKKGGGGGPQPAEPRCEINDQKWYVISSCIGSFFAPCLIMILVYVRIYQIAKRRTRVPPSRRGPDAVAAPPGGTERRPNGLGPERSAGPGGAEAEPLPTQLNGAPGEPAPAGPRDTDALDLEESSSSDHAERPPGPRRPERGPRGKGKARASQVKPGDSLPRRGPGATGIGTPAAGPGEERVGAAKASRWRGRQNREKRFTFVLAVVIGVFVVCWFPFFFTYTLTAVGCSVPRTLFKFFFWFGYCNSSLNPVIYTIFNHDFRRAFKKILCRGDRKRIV
The assay is described as follows: Radioligand binding experiment for hα2A receptor ([3H]raulwolscine, CHO cell membranes). Conditions: [3H]raulwolscine 1 nM, membranes of CHO cells transfected with human α2A receptor; read-out: h-α2A pIC50 (converted). The procedure: (§1) The interaction of a compound of Formula (I) with α2C-adrenoceptor receptors was assessed in in vitro radioligand binding experiments. In general, a low concentration of a radioligand with a high binding affinity for a particular receptor or transporter is incubated with a sample of a tissue preparation enriched in a particular receptor or transporter or with a preparation of cells expressing cloned human receptors in a buffered medium. During the incubation, the radioligand binds to the receptor or transporter. When equilibrium of binding is reached, the receptor bound radioactivity is separated from the non-bound radioactivity, and the receptor- or transporter-bound activity is counted. The interaction of the test compounds with the receptor is assessed in competition binding experiments. Various concentrations of the test compound are added to the incubation mixture containing the receptor- or transporter preparation and the radioligand. The test compound in proportion to its binding affinity and its concentration inhibits binding of the radioligand. The radioligand used for hα2A and hα2C receptor binding was [^3H]-raulwolscine.
(§2) CHO cells, stabile transfected with human adrenergic-α2A and α2C receptor cDNA, were cultured in Dulbecco's Modified Eagle's Medium (DMEM)/Nutrient mixture Ham's F12 (ratio 1:1) (Gibco, Gent-Belgium) supplemented with 10% heat inactivated fetal calf serum (Life Technologies, Merelbeke-Belgium) and antibiotics (100 IU/ml penicillin G, 100 μg/ml streptomycin sulphate, 110 μg/ml pyruvic acid and 100 μg/ml L-glutamine). One day before collection, cells were induced with 5 mM sodiumbutyrate. Upon 80-90% of confluence, cells were scraped in phosphate buffered saline without Ca^2+ and Mg^2+ and collected by centrifugation at 1500×g for 10 minutes. The cells were homogenised in Tris-HCl 50 mM using an Ultraturrax homogenizer and centrifuged for 10 minutes at 23,500×g. The pellet was washed once by resuspension and rehomogenization and the final pellet was resuspended in Tris-HCl, divided in 1 ml aliquots and stored at −70° C.
(§3) Membranes were thawed and re-homogenized in incubation buffer (glycylglycine 25 mM, pH 8.0). […] Filters were rinsed extensively with ice-cold rinsing buffer (Tris-HCl 50 mM pH 7.4). Filter-bound radioactivity was determined by scintillation counting in a Topcount (Packard, Meriden, Conn.) and results were expressed as counts per minute (cpm). Non-specific binding was determined in the presence of 1 μM oxymetazoline for the hα2A receptor and 1 μM spiroxatrine for hα2C receptors.
(§4) Data from assays in the presence of compound were calculated as a percentage of total binding measured in the absence of test compound. Inhibition curves, plotting percent of total binding versus the log value of the concentration of the test compound, were automatically generated, and sigmoidal inhibition curves were fitted using non-linear regression. The pIC50 values of test compounds were derived from individual curves.

Another assay addresses T2, 5HT-Transporter (Homo sapiens, UniProt P31645).
T2 construct: Human platelet membranes (Oceanix Biosciences Corporation, Hanover, Md., USA) were thawed; tissue Oceanix Biosciences Corporation; host or cells: human platelet membranes
Kind of assay: Binding experiment for the 5HT-transporter ([3H]paroxetine, human platelet membranes). The conditions noted are these: [3H]paroxetine 0.5 nM, read-out: h-5HTT pIC50 (converted). The procedure: as §1
Human platelet membranes (Oceanix Biosciences Corporation, Hanover, Md., USA) were thawed, diluted in buffer (Tris-HCl 50 mM, 120 mM NaCl and 5 mM KCl) and quickly (max 3 s) homogenised with an Ultraturrax homogenizer. […] Incubation was stopped by rapid filtration of the incubation mixture over GF/B filters, pre-wetted with 0.1% polyethyleneamine, using a Filtermate196 harvester (Packard, Meriden, Conn.). Filters were rinsed extensively with ice-cold buffer and radioactivity on the filters was counted in a Topcount liquid scintillation counter (Packard, Meriden, Conn.). Data were expressed as cpm. Imipramine (at 1 μM final concentration) was used to determine the non-specific binding.
as §4

Assay [2] deals with T3, human adrenergic-α2C receptor (Homo sapiens, UniProt P18825).
T3 construct: expressed in transfected cells; host or cells: CHO cells, stably transfected; membranes
T3 sequence (P18825 1-462): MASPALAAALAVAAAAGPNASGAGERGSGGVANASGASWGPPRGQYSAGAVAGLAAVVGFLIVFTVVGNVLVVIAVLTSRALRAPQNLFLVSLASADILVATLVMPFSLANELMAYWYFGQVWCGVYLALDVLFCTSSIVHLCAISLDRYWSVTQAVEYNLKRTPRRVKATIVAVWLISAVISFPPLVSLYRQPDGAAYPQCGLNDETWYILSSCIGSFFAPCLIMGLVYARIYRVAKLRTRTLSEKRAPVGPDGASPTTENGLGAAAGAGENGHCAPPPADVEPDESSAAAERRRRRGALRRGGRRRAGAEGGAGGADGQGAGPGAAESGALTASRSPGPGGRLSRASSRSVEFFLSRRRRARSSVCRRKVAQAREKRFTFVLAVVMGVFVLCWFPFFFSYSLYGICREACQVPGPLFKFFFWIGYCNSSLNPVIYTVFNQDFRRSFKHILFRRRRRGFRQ
The assay is described as follows: Radioligand binding experiment for α2C-adrenoceptor ([3H]raulwolscine, CHO cell membranes). Conditions: [3H]raulwolscine 1 nM, membranes of CHO cells transfected with human α2C receptor; read-out: h-α2C pIC50 (converted). On the procedure: as §1, §2, §3, §4

SMILES strings stand for the structures.

T2 sequence (P31645 whole entry): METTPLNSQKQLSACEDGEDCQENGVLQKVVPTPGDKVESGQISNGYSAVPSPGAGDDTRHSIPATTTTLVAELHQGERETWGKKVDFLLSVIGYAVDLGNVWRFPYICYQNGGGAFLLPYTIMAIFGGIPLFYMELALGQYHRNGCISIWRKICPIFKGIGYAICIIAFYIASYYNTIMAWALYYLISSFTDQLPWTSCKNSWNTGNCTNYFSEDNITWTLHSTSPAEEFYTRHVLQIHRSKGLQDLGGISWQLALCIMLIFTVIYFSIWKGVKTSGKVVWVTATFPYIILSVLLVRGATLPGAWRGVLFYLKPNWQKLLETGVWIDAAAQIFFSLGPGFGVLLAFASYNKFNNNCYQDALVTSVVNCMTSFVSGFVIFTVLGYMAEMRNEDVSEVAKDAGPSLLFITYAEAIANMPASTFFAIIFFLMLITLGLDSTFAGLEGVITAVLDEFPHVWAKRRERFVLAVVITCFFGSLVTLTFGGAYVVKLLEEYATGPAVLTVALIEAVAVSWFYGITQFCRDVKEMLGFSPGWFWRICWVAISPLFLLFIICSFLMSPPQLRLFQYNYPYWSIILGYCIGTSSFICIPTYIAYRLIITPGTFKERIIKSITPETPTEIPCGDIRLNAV

On to `CCCn1ccnc(NC2CCN(CCCc3ccccc3)CC2)c1=O` [Compound 7-8], for which the results for the IC50 (in assay [1]; at 5HT-Transporter; in assay [2]) were 794 nM, 5010 nM and 501 nM, respectively.

Consider `CC(C)(C)C(=O)Cn1ccnc(NC2CCN(CCCc3ccccc3)CC2)c1=O` [Compound 7-10], for which the IC50 is 1260 nM in assay [1], above 10000 nM on 5HT-Transporter and 316 nM in assay [2].

Regarding `O=c1c(NC2CCN(CCCc3ccccc3)CC2)nccn1Cc1ccccc1Br` [Compound 7-11], the IC50 in assay [1] is 1580 nM; on 5HT-Transporter it was 2000 nM; in assay [2], 398 nM.

Regarding `O=c1c(NC2CCN(CCCc3ccccc3)CC2)nccn1Cc1cccc(Br)c1` [Compound 7-12], the IC50 in assay [1] is 2000 nM; at 5HT-Transporter, 2510 nM; in assay [2], 501 nM.

Regarding `O=c1c(NC2CCN(CCCc3ccccc3)CC2)nccn1Cc1ccc(Br)cc1` [Compound 7-13], the IC50 in assay [1] is 1580 nM; on 5HT-Transporter it was 1000 nM; in assay [2], 501 nM.

Regarding `O=C(Cn1ccnc(NC2CCN(CCCc3ccccc3)CC2)c1=O)c1ccccc1` [Compound 7-14], the IC50 in assay [1] is 501 nM; on 5HT-Transporter, 3980 nM; in assay [2] it was 398 nM.

With `CSCCn1ccnc(NC2CCN(CCCc3ccccc3)CC2)c1=O` [Compound 7-15], the IC50 in assay [1] is 1000 nM; at 5HT-Transporter, 3160 nM; in assay [2], 398 nM.

As to `CN(CCc1ccccc1)C1CCN(c2nccn(CCCN3C(=O)c4ccccc4C3=O)c2=O)CC1` [Compound 8-1], the IC50 in assay [1] is 1000 nM; at 5HT-Transporter, 3160 nM; in assay [2] it was 25.1 nM.

For the compound `CN(CCc1ccccc1)C1CCN(c2nccn(CCC(=O)c3ccccc3)c2=O)CC1` [Compound 8-2], the IC50 in assay [1] was 316 nM; at 5HT-Transporter, above 10000 nM; in assay [2], 63.1 nM.

As for `NCc1ccc(Cn2ccnc(NC3CCN(CC(c4ccccc4)c4ccccc4)CC3)c2=O)cc1` [Compound 9-2], the IC50 in assay [1] was 794 nM; at 5HT-Transporter, 2510 nM; in assay [2] it was 631 nM.

Consider `CC(C)(C)OC(=O)NCCCn1ccnc(NC2CCN(CC(c3ccccc3)c3ccccc3)CC2)c1=O` [Compound 9-3], for which the IC50 was 3980 nM in assay [1], above 10000 nM at 5HT-Transporter and 316 nM in assay [2].

Take `CC(C)(C)OC(=O)NCc1ccc(Cn2ccnc(NC3CCN(CC(c4ccccc4)c4ccccc4)CC3)c2=O)cc1` [Compound 9-4]: the IC50 in assay [1] was 3160 nM; at 5HT-Transporter, above 10000 nM; in assay [2], 631 nM.

For the compound `O=c1c(NC2CCN(CC(c3ccccc3)c3ccccc3)CC2)nccn1CCN1CCCCC1` [Compound 9-5], the IC50 is 2510 nM in assay [1], above 10000 nM on 5HT-Transporter and 794 nM in assay [2].

In the case of `O=C1c2ccccc2C(=O)N1CCCn1ccnc(NC2CCN(CC(c3ccccc3)c3ccccc3)CC2)c1=O` [Compound 9-6], the IC50 in assay [1] is 1260 nM; at 5HT-Transporter it was 6310 nM; in assay [2] it was 398 nM.

Turning to `O=c1c(NC2CCN(CC(c3ccccc3)c3ccccc3)CC2)nccn1Cc1ccccc1Br` [Compound 9-7], the IC50 in assay [1] is 1000 nM; on 5HT-Transporter, above 10000 nM; in assay [2], 631 nM.

As to `O=c1c(NC2CCN(CC(c3ccccc3)c3ccccc3)CC2)nccn1Cc1cccc(Br)c1` [Compound 9-8], the IC50 in assay [1] was 1260 nM; on 5HT-Transporter, 5010 nM; in assay [2] it was 631 nM.

`O=c1c(NC2CCN(CC(c3ccccc3)c3ccccc3)CC2)nccn1Cc1ccc(Br)cc1` [Compound 9-9]: the IC50 was 1260 nM in assay [1], 6310 nM on 5HT-Transporter and 501 nM in assay [2].

`O=C(Cn1ccnc(NC2CCN(CC(c3ccccc3)c3ccccc3)CC2)c1=O)c1ccccc1` [Compound 9-10]: the IC50 is 2510 nM in assay [1], above 10000 nM at 5HT-Transporter and 631 nM in assay [2].

With `NCc1ccc(Cn2ccnc(N3CCN(CCc4ccccc4)CC3)c2=O)cc1` [Compound 10-1], the IC50 in assay [1] is 794 nM; at 5HT-Transporter, above 10000 nM; in assay [2], 631 nM.

As to `CC(C)(C)OC(=O)NCc1ccc(Cn2ccnc(N3CCN(Cc4ccccc4)CC3)c2=O)cc1` [Compound 10-2], the IC50 is 251 nM in assay [1], above 10000 nM on 5HT-Transporter and 316 nM in assay [2].

As to `C=CCn1ccnc(N2CCN(CCc3ccccc3)CC2)c1=O` [Compound 10-4], the IC50 in assay [1] is 2510 nM; on 5HT-Transporter, above 10000 nM; in assay [2], 631 nM.

For `O=c1c(N2CCN(Cc3ccccc3)CC2)nccn1C/C=C/c1ccccc1` [Compound 10-5], the IC50 was 316 nM in assay [1], above 10000 nM at 5HT-Transporter and 631 nM in assay [2].

Regarding `O=c1c(N2CCN(CCc3ccccc3)CC2)nccn1C/C=C/c1ccccc1` [Compound 10-6], the IC50 in assay [1] is 1000 nM; on 5HT-Transporter, 5010 nM; in assay [2], 501 nM.

As to `O=c1c(N2CCN(CCc3ccccc3)CC2)nccn1Cc1ccc(-c2ccccc2)cc1` [Compound 10-8], the IC50 in assay [1] was 794 nM; on 5HT-Transporter it was 5010 nM; in assay [2], 631 nM.

Consider `O=c1c(N2CCN(CCc3ccccc3)CC2)nccn1Cc1ccc2ccccc2c1` [Compound 10-10], for which the IC50 in assay [1] was 501 nM; at 5HT-Transporter, 3160 nM; in assay [2] it was 316 nM.

Regarding `O=c1c(N2CCN(CCc3ccccc3)CC2)nccn1Cc1ccc(Cl)s1` [Compound 10-11], the IC50 in assay [1] was 794 nM; on 5HT-Transporter it was above 10000 nM; in assay [2], 200 nM.

As to `COc1ccc(-c2nnc(Cn3ccnc(N4CCN(CCc5ccccc5)CC4)c3=O)o2)cc1` [Compound 10-12], the values for the IC50 (in assay [1]; on 5HT-Transporter; in assay [2]) were 1260 nM, above 10000 nM and 501 nM, respectively.

Consider `NCc1ccc(Cn2ccnc(NC3CCN(Cc4ccc(OCc5ccccc5)cc4)CC3)c2=O)cc1` [Compound 11-1], for which the IC50 in assay [1] is 251 nM; at 5HT-Transporter it was 2000 nM; in assay [2], 631 nM.

(Values after patent US20100105694A1, “SUBSTITUTED PYRAZINONE DERIVATIVES FOR USE AS A MEDICINE” (priority 2006, published 2010).)
